The nature of this data set: physchem.

SMILES strings stand for the structures. Values after ≈ are worked out from the molar mass of the structure shown.

One may read the solubility as the concentration that dissolves in the medium under given conditions.

`NCC(=O)Nc1ccc(-n2nc(C(F)(F)F)cc2-c2ccc3c(ccc4ccccc43)c2)cc1` [AR-12] gave a solubility (USP biphthalate buffer, pH 3.5, aqueous buffer) of 0.18 µg/mL (≈ 0.391 µM); a solubility (USP biphthalate buffer, pH 5, aqueous buffer) of 0.07 µg/mL (≈ 0.152 µM); a solubility (USP chloride buffer, pH 1.2, simulated gastric fluid) of 65.3 µg/mL (≈ 142 µM); a solubility (USP phosphate buffer, pH 7.4, aqueous buffer) of 0.06 µg/mL (≈ 0.13 µM).
